# Measured values taken from patent US20150079071A1, “NON-CATALYTIC DOMAIN TARGETS IN MATRIX METALLOPROTEASE PROTEINS FOR CANCER THERAPIES” (THE REGENTS OF THE UNIVERSITY OF CALIFORNIA, priority 2012, published 2015).
# Read-outs that look alike come from different tables or passages of the source.
# Key:
# Type in all cases: cell-based, mouse
# SCp2 cells = experiment: Invasion assay in Boyden chambers; details: for invasion of FL and EA-SCp2 cells: SCp2 overexpressing MMP3 constructs containing the hemopexin domain; for invasion of dPEX-SCp2 or control cells: SCp2 with hemopexin-deleted MMP3 or control vector
# Procedure: Cell culture inserts (8 μm, 24-well format; BD Biosciences) were evenly coated with 20 μL of diluted (1:5 in DMEM/F-12 medium) Matrigel (BD Biosciences). Cells (1×10^5) in 200 μL of DMEM/F-12 medium or different CM (as indicated in each experiment) were added to the upper compartment of the chamber. The lower compartment of the chamber was filled with 300 μL of medium containing 10% FBS as a chemoattractant. After 48 h of incubation at 37° C., the top side of the insert was cleared from noninvasive cells with a cotton swab and washed with serum-free DMEM/F-12. The remaining (invasive) cells at the lower surface of the filter were fixed and stained with a solution of Coomassie Blue 0.125% in methanol:acetic acid:H2O (45%:10%:45% [v/v/v]) for 15 min. Invasive cells were scored by counting 10×20 magnification fields per filter with a Zeiss Imager Z1 microscope using a 20× objective. Mouse embryonic fibroblast NIH/3T3 cells were routinely included as a positive control. Results are expressed as mean±SD from three independent experiments.
# Erk = experiment: Immunoblot of phospho-Erk / total Erk (MAPK activity); details: EpH4 cells in CL-1 gels
# Procedure: Samples were lysed using modified RIPA buffer (50 mM HEPES pH 7.4, 150 mM NaCl, 10% glycerol, 1% Triton X-100, 10 mM sodium pyrophosphate containing 1.5 mM MgCl2, 1 mM EGTA, 1% sodium deoxycholate, 0.25 mM Na3VO4, 100 mM NaF and proteinase inhibitor cocktail (EMD Millipore, Billerica, USA)). Protein concentration was determined using the BCA Protein Assay kit (Thermo Scientific, Waltham, USA), following the manufacturer's instructions. Protein samples (10 μg) were mixed with Laemmeli sample buffer and heated at 95° C. for 5 minutes. Samples were loaded into a pre-cast 4-20% tris-glycine polyacrylamide gel (Invitrogen) using the NOVEX system (Invitrogen). Resolved proteins were transferred to nitrocellulose membrane (Whatman, Maidstone, UK) followed by blocking in PBS, 0.05% Tween-20 with 5% w/v non-fat dry milk for 1 hour at room temperature (RT). Membranes were incubated overnight at 4° C. in 5% BSA, 0.1% Tween-20 in PBS containing antibodies that recognize either phosphorylated Erk1/2, total Erk1/2 (Cell Signaling). […] Primary antibodies were detected with HRP conjugated anti-IgG (Thermo) and the Pierce SuperSignal detection kit. Chemiluminescence ignal was captured with a FluorChem 8900 analysis system (Alpha Innotech, San Leandro, USA).
# [1] = test system: primary mammary organoids and EpH4 cells; experiment: Branching morphogenesis (invasion/branching) assay in collagen-1 gels; details: 9 nM FGF2, inhibitors 40 μM; for invasion/branching in sparse CL-1 gels: sparse CL-1 1 mg/ml
# Procedure: Single cells were removed by centrifugation and the clusters were then washed three times with DMEM/F12. Cell clusters and primary organoids were embedded in collagen-1 gels. Briefly, acid-extracted type I collagen (Koken, Tokyo, Japan) was mixed gently on ice (8 vol) with 1 vol of 10×DMEM/F12, then pH is adjusted to 7.4 with 0.1N NaOH. Collagen solution was added into each well of a 48-well plate, which was then incubated at 37° C. to allow gelation. EpH4 cell clusters or primary organoids were suspended in collagen at 3 mg/ml or 1 mg/ml, poured onto the basal collagen layer and placed at 37° C. for gelation. After gelation of the collagen, growth medium containing 9 nM FGF2 was added to the wells. Branching morphogenesis was assessed using a Nikon Diaphot 300 microscope and clusters were scored as positive when displaying three or more branches of length at least half the diameter of the central cell cluster.
# Mmp14 and Itgb1 = experiment: Immunoblot of Mmp14 and Itgb1 levels in EpH4 cells
# Procedure: Samples were lysed using modified RIPA buffer (50 mM HEPES pH 7.4, 150 mM NaCl, 10% glycerol, 1% Triton X-100, 10 mM sodium pyrophosphate containing 1.5 mM MgCl2, 1 mM EGTA, 1% sodium deoxycholate, 0.25 mM Na3VO4, 100 mM NaF and proteinase inhibitor cocktail (EMD Millipore, Billerica, USA)). Protein concentration was determined using the BCA Protein Assay kit (Thermo Scientific, Waltham, USA), following the manufacturer's instructions. Protein samples (10 μg) were mixed with Laemmeli sample buffer and heated at 95° C. for 5 minutes. Samples were loaded into a pre-cast 4-20% tris-glycine polyacrylamide gel (Invitrogen) using the NOVEX system (Invitrogen). Resolved proteins were transferred to nitrocellulose membrane (Whatman, Maidstone, UK) followed by blocking in PBS, 0.05% Tween-20 with 5% w/v non-fat dry milk for 1 hour at room temperature (RT). Membranes were incubated overnight at 4° C. in 5% BSA, 0.1% Tween-20 in PBS containing antibodies that recognize either phosphorylated Erk1/2, total Erk1/2 (Cell Signaling). Anti-Mmp14 (Abcam, Cambridge, USA), anti-Itgb1 (Santa Cruz Biotechnology, Santa Cruz, USA), anti-Itgb1 p788/789 (Abcam), anti-LAM A/C (Santa Cruz Biotechnology), anti-Actin (Abcam), anti-FLAG (Sigma) and rabbit IgG (Sigma) antibodies were used for immunoblotting. Primary antibodies were detected with HRP conjugated anti-IgG (Thermo) and the Pierce SuperSignal detection kit. Chemiluminescence ignal was captured with a FluorChem 8900 analysis system (Alpha Innotech, San Leandro, USA).
# [2] = test system: primary mammary organoids; experiment: Branching morphogenesis assay of primary mammary organoids in 3D Col-1 gels
# Procedure: Primary organoids or clustered EpH4 cells were embedded in 3D Col-1 gels as previously published (Simian et al. 2001; Mori et al. 2013). In brief, acid-solubilized Col-1 solution was mixed gently on ice with 1 vol of 10×DMEM/F-12 (pH adjusted to 7.4 with 0.1 M NaOH), and the concentration was adjusted to 3 mg/mL with DMEM/F-12. A basal layer of 80 μL of Col-1 was poured into each well of an eight-well chambered coverglass (155409, Thermo Scientific) and allowed to gel for 5 min at 37° C. A second layer of 200 μL of Col-1 containing 150 organoids or EpH4 clusters was added to each well and placed immediately at 37° C. After gelation, 400 μL of chemically defined medium (DMEM/F-12 containing 1% insulin/transferrin/selenium, 1% penicilin/streptomycin) with 9 nM TGFα (Sigma) or 9 nM bFGF (Sigma) was added to each well (unless stated otherwise) and replaced every other day.
# After 3 d of culture, gels were fixed with 4% formalin for 30 min and stained with phalloidin and DAPI for 1 h. Structures were imaged with an upright Zeiss LSM710 using a 0.8 NA 20× air objective. […] The number of extending processes and their average length were determined using the Imaris program (Bitplane). […] Fifty structures were counted per condition, and the experiments were executed at least three times.
compound,measurement,setting,value
CCc1cc(-c2n[nH]c(C)c2-c2ccc3c(c2)OCCO3)c(O)cc1O [CCT018159],invasion of FL and EA-SCp2 cells,SCp2 cells,reduced invasion
same,invasion of dPEX-SCp2 or control cells,SCp2 cells,no significant effect
CNC(=O)[C@H](Cc1c[nH]c2ccccc12)NC(=O)[C@@H](CC(=O)NO)CC(C)C [GM6001],MAPK activation (pErk/total Erk),Erk,did not change
same,invasion/branching in dense CL-1 gels,[1]; dense CL-1 3 mg/ml,completely abrogated
same,invasion/branching in sparse CL-1 gels,[1],still invaded
COc1cccc(-c2cc(=O)c3ccccc3o2)c1N [PD98059],Itgb1 level,Mmp14 and Itgb1,reduced
same,Mmp14 level,Mmp14 and Itgb1,reduced
same,Itgb1 level,Mmp14 and Itgb1; listed as PD95089,reduced expression
same,Mmp14 level,Mmp14 and Itgb1; listed as PD95089,reduced expression
same,invasion/branching in sparse CL-1 gels,[1],reduced invasion/branching
recombinant HSP90β: recombinant HSP90β protein purchased from Calbiochem/EMD Millipore,invasion of FL and EA-SCp2 cells,SCp2 cells,enhanced invasion significantly
same,invasion of dPEX-SCp2 or control cells,SCp2 cells,did not raise the invasive potential
same,invasion and branching of mammary organoids,"[2]; 3 mg/mL Col-1, 3 d, TGFα",most exuberant branched structures
same,spatial network per organoid,"[2]; organoids overexpressing FL MMP3, 3 mg/mL Col-1, 3 d",longest spatial network observed so far
